{"source": "paper PMC10382584", "about": "“Macrocyclization of linear molecules by deep learning to facilitate macrocyclic drug candidates discovery” (Nature Communications, 2023)", "key": {"DSS-induced colitis mice": {"system": "DSS-induced colitis mice", "experiment": "In vivo efficacy study, DSS-induced colitis model", "design": "species or system male BALB/c mice", "procedure": "Model mice were divided into four groups and eight mice were included in each group on day 8. […] Meanwhile, solvent was given intragastrically to the control group and model group. On day 15, the mice were sacrificed, and the length and weight of each colon were measured.\nBody weight, the stool consistency, and the presence of blood in feces were recorded daily in the morning. […] The maximum score was 9, which was the sum of the scores. About 1-cm colon tissue, which is 0.5 cm away from the anal margin, was collected, and the ileocecal area was used for histopathological examination. After H&E staining, the tissues were scored under single-blind conditions to evaluate the levels of inflammation and tissue damage in the colons following the criteria proposed by ref. [62]. Statistical analyses were performed using SPSS v24.0."}, "In vivo PK study in mice": {"experiment": "In vivo PK study in mice;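 as to all read-outs here: mice dosed intravenously or orally, three animals per time point, plasma drug levels quantified by LC-MS/MS, PK parameters derived by noncompartmental analysis in Phoenix WinNonLin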", "conditions": "for concentration at time point (concentration-time data, Supplementary Fig. 8): individual mice 1-3; for AUCinf / Cmax / T1/2 / Tmax: mice", "procedure": "The mice were separately administered to a group of three mice per time point for intravenous (5 mg/kg) or oral administration (5 mg/kg). […] Then the samples were separated by centrifugation and analyzed by LC-MS/MS (XEVO TQ-S) to determine the plasma drug concentrations. The PK parameters were calculated using the noncompartment model with Phoenix WinNonLin v8.0. The animal experimental procedures were approved by the Medicine Research Ethics Committee of Hangzhou Leading Pharmatech Co., Ltd."}, "SET-2 cells": {"system": "SET-2 cells", "experiment": "Cell proliferation assay (CCK-8), SET-2 cells", "type": "cell-based, human"}, "[1]": {"experiment": "Chemical stability in DMSO stock solution (HPLC purity)", "type": "physicochemical", "conditions": "mean±SD", "from_the_text": "compounds were formulated in the solubilizing vehicle (5% DMSO/30% PEG400/65% […]\nsafety to the mice in the test.\n6. What was the sample dissolved in for the in vitro and in vivo experiments? Response: The solvent information for the in vitro and in vivo experiments has been added in the revised manuscript. […]\n7. Was the stability of the different compounds assessed and compared to Fedratinib? This is generally a critical point in macrocyclic studies. […]\nin DMSO stock solution. Test compounds were incubated at room temperature and 60 ℃, respectively, for 72 h, and their purities (%) were determined using HPLC equipped with a CORTECS C18 column (4.6*50 mm, 2.7 μm particle size) and a UV/VIS detector setting of λ=210 nm. All co mpounds were eluted with the two solvent systems ([…] as organic phase in Method I and CH3OH as organic phase in Method II) at a flow rate of 0.3 ml/min. Each experiment repeated for three times and the results are represented as mean±SD.\nTa b e l R 1 . Comparison of chemical stability of different compounds at room temperature and 60 ℃, respectively."}}, "note": "Values joined by “and” are separate entries in the source; they are usually repeats but may differ in a detail not shown here. Equal values may be shown once. Read-outs that look alike come from different tables or passages of the source."}
{"smiles": "Cc1cnc2nc1Nc1cccc(c1)COCC=CCOCc1cc(ccc1OCCN1CCCC1)N2", "note": "[Compound 3]", "values": [{"measurement": "Body weight (Fig. 6a)", "setting": "DSS-induced colitis mice; Compound 3 5 mg/kg, day 14, individual mice, 5 mg/kg", "value": "21.5 and 17.4 and 22.3 and 23.4 and 19.2 and 22.4 (2×)"}, {"measurement": "HE staining score (Fig. 6d)", "setting": "DSS-induced colitis mice; Compound 3 5 mg/kg, individual colon tissues (n = 7), 5 mg/kg", "value": "3 and 1 and 2"}, {"measurement": "symptoms in DSS-induced murine colitis", "setting": "DSS-induced colitis mice; compound 3 5 mg/kg, Fedratinib 10 mg/kg", "value": "ameliorate the symptoms"}, {"measurement": "concentration at time point (concentration-time data, Supplementary Fig. 8)", "setting": "In vivo PK study in mice; iv 5 mg/kg, 0.5 h, 5 mg/kg", "value": "112.17 and 96.91 and 108.01"}, {"measurement": "concentration at time point (concentration-time data, Supplementary Fig. 8)", "setting": "In vivo PK study in mice; iv 5 mg/kg, 1 h, 5 mg/kg", "value": "33.98 and 41.85 and 29.29"}, {"measurement": "concentration at time point (concentration-time data, Supplementary Fig. 8)", "setting": "In vivo PK study in mice; iv 5 mg/kg, 2 h, 5 mg/kg", "value": "22.85 and 22.08 and 24.61"}, {"measurement": "concentration at time point (concentration-time data, Supplementary Fig. 8)", "setting": "In vivo PK study in mice; iv 5 mg/kg, 4 h, 5 mg/kg", "value": "23.46 and 31.4 and 25.29"}, {"measurement": "concentration at time point (concentration-time data, Supplementary Fig. 8)", "setting": "In vivo PK study in mice; iv 5 mg/kg, 8 h, 5 mg/kg", "value": "17.79 and 10.67 and 14.54"}, {"measurement": "concentration at time point (concentration-time data, Supplementary Fig. 8)", "setting": "In vivo PK study in mice; iv 5 mg/kg, 24 h, 5 mg/kg", "value": "2.18 and 0 (2×)"}, {"measurement": "AUCinf", "setting": "In vivo PK study in mice; iv (5 mg/kg)", "value": 443.20, "unit": "ng·h/mL"}, {"measurement": "Cmax", "setting": "In vivo PK study in mice; iv (5 mg/kg)", "value": 351.23, "unit": "ng/mL"}, {"measurement": "T1/2", "setting": "In vivo PK study in mice; iv (5 mg/kg)", "value": 0.52, "unit": "h"}, {"measurement": "Tmax", "setting": "In vivo PK study in mice; iv (5 mg/kg)", "value": 0.083, "unit": "h"}, {"measurement": "AUCinf", "setting": "In vivo PK study in mice; po (5 mg/kg)", "value": 114.69, "unit": "ng·h/mL"}, {"measurement": "Cmax", "setting": "In vivo PK study in mice; po (5 mg/kg)", "value": 6.64, "unit": "ng/mL"}, {"measurement": "T1/2", "setting": "In vivo PK study in mice; po (5 mg/kg)", "value": 10.07, "unit": "h"}, {"measurement": "Tmax", "setting": "In vivo PK study in mice; po (5 mg/kg)", "value": 4.00, "unit": "h"}, {"measurement": "concentration at time point (concentration-time data, Supplementary Fig. 8)", "setting": "In vivo PK study in mice; po 5 mg/kg, 1 h, 5 mg/kg", "value": "2.46 and 4.26 and 2.81"}, {"measurement": "concentration at time point (concentration-time data, Supplementary Fig. 8)", "setting": "In vivo PK study in mice; po 5 mg/kg, 2 h, 5 mg/kg", "value": "3.59 and 4.51 and 5.67"}, {"measurement": "concentration at time point (concentration-time data, Supplementary Fig. 8)", "setting": "In vivo PK study in mice; po 5 mg/kg, 3 h, 5 mg/kg", "value": "4.59 and 4.64 and 5.68"}, {"measurement": "concentration at time point (concentration-time data, Supplementary Fig. 8)", "setting": "In vivo PK study in mice; po 5 mg/kg, 4 h, 5 mg/kg", "value": "6.18 and 5.41 and 8.34"}, {"measurement": "concentration at time point (concentration-time data, Supplementary Fig. 8)", "setting": "In vivo PK study in mice; po 5 mg/kg, 6 h, 5 mg/kg", "value": "4.85 and 6.09 and 5.97"}, {"measurement": "concentration at time point (concentration-time data, Supplementary Fig. 8)", "setting": "In vivo PK study in mice; po 5 mg/kg, 8 h, 5 mg/kg", "value": "4.94 and 5.49 and 4.7"}, {"measurement": "concentration at time point (concentration-time data, Supplementary Fig. 8)", "setting": "In vivo PK study in mice; po 5 mg/kg, 24 h", "value": 0}, {"measurement": "Inhibition (%)", "setting": "SET-2 cells; SET-2 cell lines, C 0.0977 μM, single wells of replicate 1 and replicate 2", "value": "-27.9889% and -18.4466% and -28.7656% and 0.261% and 11.375% and 10.333%"}, {"measurement": "Inhibition (%)", "setting": "SET-2 cells; SET-2 cell lines, C 0.1953 μM, single wells of replicate 1 and replicate 2", "value": "-32.7601% and -23.4397% and -24.3273% and 16.816% and 17.164% and 5.470%"}, {"measurement": "Inhibition (%)", "setting": "SET-2 cells; SET-2 cell lines, C 0.3906 μM, single wells of replicate 1 and replicate 2", "value": "-24.5492% and -19.4452% and -33.2039% and 12.880% and 13.806% and 4.892%"}, {"measurement": "Inhibition (%)", "setting": "SET-2 cells; SET-2 cell lines, C 0.7813 μM, single wells of replicate 1 and replicate 2", "value": "-42.4133% and -41.7476% and -46.4078% and 9.291% and 13.806% and 8.828%"}, {"measurement": "Inhibition (%)", "setting": "SET-2 cells; SET-2 cell lines, C 1.5625 μM, single wells of replicate 1 and replicate 2", "value": "-43.4119% and -41.8585% and -40.6380% and 14.617% and 26.541% and 23.994%"}, {"measurement": "Inhibition (%)", "setting": "SET-2 cells; SET-2 cell lines, C 3.1250 μM, single wells of replicate 1 and replicate 2", "value": "-19.0014% and -10.7906% and -7.5728% and 27.931% and 19.711% and 22.952%"}, {"measurement": "Inhibition (%)", "setting": "SET-2 cells; SET-2 cell lines, 6.2500 μM, single wells, replicates 1 and 2, 6.25 µM", "value": "17.1706% and 27.3786% and 29.5978% and 31.635% and 25.499% and 11.259%"}, {"measurement": "Inhibition (%)", "setting": "SET-2 cells; SET-2 cell lines, 12.5000 μM, single wells, replicates 1 and 2, 12.5 µM", "value": "59.6671% and 60.0000% and 61.2205% and 43.097% and 40.782% and 34.993%"}, {"measurement": "IC50", "setting": "SET-2 cells; SET-2 cell lines, mean of 2 replicates, read-out: IC50/μM mean, cellular antiproliferative activity", "value": 11.1, "unit": "µM"}, {"measurement": "IC50", "setting": "SET-2 cells; SET-2 cell lines, mean ± sd of 2 replicates, read-out: IC50/μM mean ± sd, cellular antiproliferative activity", "value": "11.1 ± 0.13", "unit": "µM"}, {"measurement": "IC50", "setting": "SET-2 cells; SET-2 cell lines, single-replicate fits, read-out: IC50/μM (individual replicates), cellular antiproliferative activity", "value": "11 µM and 11.2 µM"}, {"measurement": "IC50", "setting": "SET-2 cells; SET-2 cells, 72 h, mean ± SD, read-out: Cellular Antiproliferative Activity (IC50) SET-2", "value": "11.1 ± 0.13", "unit": "µM"}, {"measurement": "purity after incubation in DMSO stock solution", "setting": "[1]; 60 ℃, 0 h", "value": "99.78±0.07", "unit": "%"}, {"measurement": "purity after incubation in DMSO stock solution", "setting": "[1]; 60 ℃, 2 h", "value": "99.46±0.04", "unit": "%"}, {"measurement": "purity after incubation in DMSO stock solution", "setting": "[1]; 60 ℃, 24 h", "value": "99.64±0.04", "unit": "%"}, {"measurement": "purity after incubation in DMSO stock solution", "setting": "[1]; 60 ℃, 48 h", "value": "99.66±0.06", "unit": "%"}, {"measurement": "purity after incubation in DMSO stock solution", "setting": "[1]; 60 ℃, 72 h", "value": "99.78±0.03", "unit": "%"}, {"measurement": "purity after incubation in DMSO stock solution", "setting": "[1]; Room Temperature, 0 h", "value": "99.68±0.05", "unit": "%"}, {"measurement": "purity after incubation in DMSO stock solution", "setting": "[1]; Room Temperature, 2 h", "value": "99.77±0.01", "unit": "%"}, {"measurement": "purity after incubation in DMSO stock solution", "setting": "[1]; Room Temperature, 24 h", "value": "99.68±0.07", "unit": "%"}, {"measurement": "purity after incubation in DMSO stock solution", "setting": "[1]; Room Temperature, 48 h", "value": "99.63±0.02", "unit": "%"}, {"measurement": "purity after incubation in DMSO stock solution", "setting": "[1]; Room Temperature, 72 h", "value": "99.64±0.10", "unit": "%"}]}
